{
  "source": "patent US12076311B2",
  "about": "“Therapeutic compositions comprising deuterated or partially deuterated N,N-dimethyltryptamine compounds” (CYBIN UK LTD, priority 2019, dated 2024)",
  "key": {"[1]": {"test_system": "Human (mixed gender) hepatocytes pooled from 10 donors", "assay": "In vitro intrinsic clearance in human hepatocytes", "format": "in vitro ADME", "conditions": "human hepatocytes 0.545 million cells/mL, 5 μM, up to 60 minutes at 37° C.; weighted by ratio of D0, D1 and D2", "description": "To use human hepatocytes to assess the in vitro intrinsic clearance of deuterated DMT analogue blends relative to DMT.\nHuman (mixed gender) hepatocytes pooled from 10 donors (0.545 million cells/mL) were used to investigate the in vitro intrinsic clearance of DMT and 6 deuterated analogues.\nA concentration of 5 μM was used for all test compounds, as well as sumatriptan, serotonin, benzylamine controls. This concentration was chosen in order to maximise the signal-to-noise ratio, while remaining under the Michaelis constant (Km) for the monoamine oxidase enzyme (MAO). Diltiazem and diclofenac controls were used at a laboratory-validated concentration of 1 μM.\nTest compounds were mixed with the hepatocyte suspension within a 96-well plate and incubated for up to 60 minutes at 37° C. […] At 7 time points, small aliquots were withdrawn, and the test compound/blend concentration therein was measured by LC-MS/MS. The time points measured were 2, 4, 8, 15, 30, 45 and 60 minutes. […]\nThe resulting concentration-time profile was then used to calculate intrinsic clearance (CLint) and half-life (t½). […] Intrinsic clearance is calculated from the slope/elimination rate constant and the formula is CLint=(−1000*slope)/cell denisty in 1E6 cells/ml, to give units of microlitre/min/million cells.\nIntrinsic clearance and half-life values were calculated for DMT and the 6 deuterated mixtures described above."}, "[2]": {"conditions": "short-acting psychedelic; cited from earlier work"}},
  "data": [
    {"smiles": "CN(C)CCc1c[nH]c2ccccc12", "note": "[DMT, N,N-dimethyltryptamine]", "values": [
      {"measurement": "Intrinsic clearance", "setting": "[1]", "value": 13.77, "unit": "μL/min/million cells"}
    ]},
    {"smiles": "CN(C)CCc1c[nH]c2ccccc12", "note": "[N,N-dimethyltryptamine (DMT)]", "values": [
      {"measurement": "duration of action", "setting": "[2]", "value": "under 20 minutes"}
    ]}
  ]
}
